In US11179471B2, “Peptide for cytosolic delivery” (priority 2017, dated 2021):
Residues, ends and D or L forms follow the SMILES beside them.

Key:
[1] = Helix content from CD spectra in the presence of POPC/POPG (3:1) liposomes; type: physicochemical; settings: result in words (FIG. 1)
Experimental: The helix content was calculated by the method of Y. H. Chen et al., 1972, based on 222-nm molar ellipticity ([…]) using the following formula: Helicity (%)=−([θ]222+2340)/30300*100.
The helix content of the peptides obtained in Example 1 (L17E, L17E/Q21E, L17Aad, HA/E1, HA/E2, and HAad) was calculated in the presence of POPC/POPG (3:1) liposomes by the method of Y. H. Chen et al., 1972, based on 222-nm molar ellipticity ([θ]222) using the following formula: Helix content (%)=−([θ]222+2340)/30300*100. Further, the CD spectra of the peptides were measured.

HeLa cells = assay: Intracellular release of Alexa 488-labeled human immunoglobulin (IgG, circa 160 kDa); type: cell-based; settings: for cells in which intracellular release of human immunoglobulin was observed: α-MEM(−) 1 hour
Experimental: The cells and human immunoglobulin fluorescently labeled with Alexa 488 (IgG, circa 160 kDa) (500 μg/mL) were incubated in the presence of HAad, HA/E2, or L17E (40 μM each) in α-MEM(−) medium for 1 hour in the same manner as in Example 6.
The cells and human immunoglobulin fluorescently labeled with Alexa 488 (IgG, circa 160 kDa) (50 μg/mL: 1/10 the volume of Example 8) were incubated in the presence of HAad or L17E (40 μM each) in α-MEM(−) medium for 1 hour.
In the presence of HAad or L17E (20 μM each: ½ the amount used in Examples 8 and 9), the cells and human immunoglobulin fluorescently labeled with Alexa 488 (IgG, circa 160 kDa) (500 μg/mL: the same amount as in Example 8) were incubated in α-MEM(−) medium for 1 hour. […] (In FIG. 9, the intracellular release achieved by treatment with a low concentration of HAad was 2.5 times the release achieved by L17E. With respect to the peptide concentration required to detect the signal of intracellularly released human immunoglobulin in 35% of the cells, the concentration of L17E is 40 μM, and the concentration of HAad is 20 μM, which is half the concentration of L17E.)

[2] = test system: HeLa cells transfected with a plasmid encoding loxP-DsRed-loxP-EGFP; assay: Genetic recombination assay by intracellular delivery of Cre protein (EGFP expression); type: cell-based
Experimental: HeLa cells transfected with a plasmid encoding loxP-DsRed-loxP-EGFP, which were prepared in the same manner as in the Examples of PTL 2, were incubated with His-tag fusion Cre (Cre-Hiss) (10 μM) in the presence of HAad, HA/E2, or L17E (40 μM each) for 1 hour. This system was designed to express EGFP when intracellular release of Cre protein induces genetic recombination. […] The proportions of GFP-expressing cells in the cells treated with HAad, HA/E2, and L17E were 41%, 36%, and 30%, respectively. Considering the fact that the EGFP expression efficiency achieved with no administration of a release peptide was 9%, peptide administration of HAad, HA/E2, and L17E can be considered to increase genetic recombination by 32%, 27%, and […], respectively, as compared with no peptide administration.

[3] = test system: mitochondrial membrane of HeLa cells; settings: HeLa; 40 μM, 1 hour in α-MEM(−); Lipofectamine LTX/pCI complex overnight in α-MEM(+)
Text: Mitochondrial membranes are considered to be rich in acidic lipid, as compared with cell membranes. Accordingly, the effects of the above peptides on a mitochondrial membrane were examined by JC-1 assay. A JC-1 reagent emits red (J-aggregate) fluorescence when the mitochondrial membrane is kept normal and the membrane potential is maintained; and the JC-1 reagent emits green (J-monomer) fluorescence when the mitochondrial membrane is damaged and the membrane potential is not kept normal. After HeLa cells were incubated with HAad, HA/E2, or L17E (40 μM) in α-MEM(−) for 1 hour, JC-1 assay was performed. The percentage of cells that emitted red fluorescence was assayed by flow cytometry.

[4] = Cell viability 24 hours after peptide treatment in the presence of serum (WST-8); type: cell-based; settings: cells (cell line not given); peptide 10 μM, 20 μM and 40 μM; α-MEM(+) 24 hours; WST-8
Experimental: (§1) After the cells were incubated in the presence of HAad, HA/E2, or L17E (each 10 μM, 20 μM, and 40 μM) in α-MEM(+) medium for 24 hours, the cell viability (%) was evaluated by WST-8 assay (FIG. 14). The cell viability (%) after 24 hours with the use of any peptide at any concentration was almost 100%.

cells = assay: as above; type: cell-based; settings: 10-40 μM; α-MEM(+) 24 hours
Experimental: as §1

## CC[C@H](C)[C@H](N)C(=O)N[C@@H](Cc1c[nH]c2ccccc12)C(=O)N[C@@H](CC(C)C)C(=O)N[C@H](C(=O)N[C@@H](C)C(=O)N[C@@H](CC(C)C)C(=O)N[C@@H](CCCCN)C(=O)N[C@@H](Cc1ccccc1)C(=O)N[C@@H](CC(C)C)C(=O)NCC(=O)N[C@@H](CCCCN)C(=O)N[C@@H](C)C(=O)N[C@@H](C)C(=O)N[C@@H](C)C(=O)N[C@@H](CCCCN)C(=O)N[C@@H](C)C(=O)N[C@@H](CCCC(=O)O)C(=O)N[C@@H](C)C(=O)N[C@@H](CCCCN)C(=O)N[C@@H](CCC(N)=O)C(=O)N[C@@H](CCCC(=O)O)C(=O)N[C@@H](CC(C)C)C(=O)N[C@@H](CO)C(=O)N[C@@H](CCCCN)C(=O)N[C@@H](CC(C)C)C(N)=O)[C@@H](C)O [HAad, H-IWLTALKFLGKAAAKAXAKQXLSKL-amide] (HELM PEPTIDE1{I.W.L.T.A.L.K.F.L.G.K.A.A.A.K.A.[O=C(O)CCC[C@H](N[*:1])C(=O)[*:2]].A.K.Q.[O=C(O)CCC[C@H](N[*:1])C(=O)[*:2]].L.S.K.L.[am]}$$$$V2.0)
[1]
  helicity in the presence of an acidic lipid membrane: high helicity
HeLa cells; IgG 500 μg/mL, 1 hour
  peptide concentration required to detect the signal of intracellularly released human immunoglobulin in 35% of the cells: 20 µM
HeLa cells; peptide 20 μM, IgG 500 μg/mL (FIG. 9)
  intracellular release of IgG relative to L17E: 2.5 times
HeLa cells; peptide 20 μM, IgG 500 μg/mL
  cells in which intracellular release of human immunoglobulin was observed: about 37%
HeLa cells; peptide 40 μM, HAad treatment compared with L17E
  IgG dose required for intracellular IgG release in 50% of the cells, relative: 1/10
HeLa cells; peptide 40 μM, IgG 50 μg/mL (FIG. 8)
  intracellular release of IgG relative to L17E: 5 times
HeLa cells; peptide 40 μM, IgG 50 μg/mL
  cells in which intracellular release of human immunoglobulin was observed: 50%
HeLa cells; peptide 40 μM, IgG 500 μg/mL (FIG. 7)
  intracellular release of IgG relative to L17E: twice
HeLa cells; peptide 40 μM, IgG 500 μg/mL
  cells in which intracellular release of human immunoglobulin was observed: about 70%
[2]; Cre-His6 10 μM, peptide 40 μM, 1 hour, then 24 hours in α-MEM(+)
  proportion of GFP-expressing cells: 41%
[2]; EGFP expression with no release peptide was 9%
  increase of genetic recombination as compared with no peptide administration: 32%
[3]
  effect on mitochondrial membrane (cells emitting red JC-1 fluorescence), in words: no significant difference from the untreated case
[4]
  viability at 24 h: ~100%
cells
  toxicity, in words: no significant toxicity
